Key:
[1] = biological target: T1, AXL (Homo sapiens, UniProt P30530); assay: IMAP fluorescence polarization kinase assay, AXL; assay type: biochemical; conditions: ATP 24.7 μM, enzyme 2.5 nM, 240 minutes, read-out: AXL inhibitory constant (Ki)
T1 sequence (P30530 26-894): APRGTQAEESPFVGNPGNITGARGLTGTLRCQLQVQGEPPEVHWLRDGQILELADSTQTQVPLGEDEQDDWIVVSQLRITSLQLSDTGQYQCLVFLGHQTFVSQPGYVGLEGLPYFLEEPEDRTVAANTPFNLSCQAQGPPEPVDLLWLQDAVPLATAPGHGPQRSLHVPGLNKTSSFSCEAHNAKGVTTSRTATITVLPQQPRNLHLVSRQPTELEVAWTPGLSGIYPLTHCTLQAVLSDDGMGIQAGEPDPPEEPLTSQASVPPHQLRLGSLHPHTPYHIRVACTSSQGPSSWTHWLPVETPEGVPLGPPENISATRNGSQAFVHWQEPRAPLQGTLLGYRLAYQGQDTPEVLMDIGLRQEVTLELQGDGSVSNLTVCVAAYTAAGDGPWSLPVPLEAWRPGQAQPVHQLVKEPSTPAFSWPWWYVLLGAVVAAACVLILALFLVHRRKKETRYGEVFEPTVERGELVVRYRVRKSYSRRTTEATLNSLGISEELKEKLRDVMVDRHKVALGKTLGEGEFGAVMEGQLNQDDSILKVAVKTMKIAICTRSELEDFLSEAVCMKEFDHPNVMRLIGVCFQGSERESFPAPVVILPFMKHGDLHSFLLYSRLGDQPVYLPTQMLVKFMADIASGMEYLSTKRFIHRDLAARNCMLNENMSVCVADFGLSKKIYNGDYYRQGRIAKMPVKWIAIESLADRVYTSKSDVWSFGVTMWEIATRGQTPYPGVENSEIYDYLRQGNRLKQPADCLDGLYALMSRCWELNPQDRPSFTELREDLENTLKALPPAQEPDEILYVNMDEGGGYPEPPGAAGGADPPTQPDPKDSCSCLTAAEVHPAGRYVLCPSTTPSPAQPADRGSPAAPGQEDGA
Description: (§1) Activities of compounds against each of TYRO3, AXL, and MERTK as well as against FLT3, were determined using an immobilized metal ion affinity-based fluorescence polarization (“IMAP”) assay. A fluorescently-labeled substrate peptide was phosphorylated in the kinase reaction, after which a binding solution containing large trivalent metal-based nanoparticles was added and the phosphorylated substrate binds to these beads. This reduces the rotational speed of the substrate which is then detected using fluorescence polarization as a read-out.
(§2) The substrates used for each enzyme are as follows: AXL: 5F1-KKKKEEIYFFFG-NH2(SEQ ID NO:1); FLT3: 5F1-KKKKEEIYFFF-NH2 (SEQ ID NO:2); MERTK: 5F1-EFPIYDFLPAKKK-NH2 (SEQ ID NO:3); and TYRO3: 5F1-EFPIYDFLPAKKK-NH2 (SEQ ID NO:4).
(§3) This assay was performed in a 384-well, polystyrene microplate in a final volume of 8 μl. Substrate (final concentration=400 nM), ATP (final concentrations=24.7μM for AXL; 2.74 μM for FLT3; 2.69 μM for MERTK; and 54.0 μM for TYRO3), compounds and enzyme (final concentrations=2.5 nM for AXL, FLT3 and TYRO3; 1.5 nM for MERTK) were pipetted in this order into the appropriate reaction buffer (AXL: 50 mM HEPES, pH 8.0, 1 mM DTT, 10 mM MgCl2, 0.01% BRU35, 0.01% Triton X-100; FLT3: 50 mM HEPES, pH 8.0, 1 mM DTT, 10 mM MgCl2, 0.01% Triton X-100, 0.01% NP40; MERTK/TYRO3: 50 mM HEPES, pH 8.0, 1 mM DTT, 10 mM MgCl2, 0.01% Triton X-100) and incubated at room temperature for varying times (AXL, FLT3 and MERTK: 240 minutes; TYRO3: 60 minutes). IMAP binding solution was then dispensed, the plate incubated for 60 minutes at room temperature and the fluorescence polarization measured. Data were analyzed using XLfit.

[2] = biological target: T2, FLT3 (Homo sapiens, UniProt P36888); assay: IMAP fluorescence polarization kinase assay, FLT3; assay type: biochemical; conditions: ATP 2.74 μM, enzyme 2.5 nM, 240 minutes, read-out: FLT3 inhibitory constant (Ki)
T2 sequence (P36888 27-993): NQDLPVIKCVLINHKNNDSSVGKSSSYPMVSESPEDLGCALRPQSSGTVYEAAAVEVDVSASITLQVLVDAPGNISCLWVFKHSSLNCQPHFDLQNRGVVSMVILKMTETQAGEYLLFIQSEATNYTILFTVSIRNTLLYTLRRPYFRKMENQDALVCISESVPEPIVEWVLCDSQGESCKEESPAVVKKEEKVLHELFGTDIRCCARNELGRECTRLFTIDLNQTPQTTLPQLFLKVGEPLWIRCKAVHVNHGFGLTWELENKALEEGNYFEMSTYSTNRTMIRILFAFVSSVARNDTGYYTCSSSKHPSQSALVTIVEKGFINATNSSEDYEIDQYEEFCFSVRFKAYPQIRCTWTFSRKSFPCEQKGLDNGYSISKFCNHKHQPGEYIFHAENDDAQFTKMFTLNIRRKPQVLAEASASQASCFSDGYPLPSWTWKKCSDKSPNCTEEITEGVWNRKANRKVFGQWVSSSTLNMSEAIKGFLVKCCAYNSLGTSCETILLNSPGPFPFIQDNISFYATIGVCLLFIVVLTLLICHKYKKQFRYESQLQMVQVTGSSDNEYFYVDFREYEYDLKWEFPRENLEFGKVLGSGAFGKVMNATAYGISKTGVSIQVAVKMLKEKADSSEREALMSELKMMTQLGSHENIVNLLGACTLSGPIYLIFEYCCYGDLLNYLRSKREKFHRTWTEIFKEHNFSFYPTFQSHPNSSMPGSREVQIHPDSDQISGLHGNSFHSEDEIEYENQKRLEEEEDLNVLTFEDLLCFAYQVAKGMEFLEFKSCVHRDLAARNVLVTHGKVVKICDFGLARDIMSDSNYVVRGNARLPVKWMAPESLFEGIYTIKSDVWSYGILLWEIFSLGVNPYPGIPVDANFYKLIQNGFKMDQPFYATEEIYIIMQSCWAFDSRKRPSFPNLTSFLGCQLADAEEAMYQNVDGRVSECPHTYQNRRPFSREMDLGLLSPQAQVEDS
Description: as §1, §2, §3

Row | Ki [1] [µM] | Ki [2] [µM] | SMILES
1 | > 10 | 1 to 10 | COCC(C)c1cc2c(N[C@H]3CC[C@H](N)CC3)c(C(=O)Nc3ccc(F)cc3)cnc2[nH]1 (stereo partly drawn) [Compound 155]
2 | 1 to 10 | 0.1 to 1 | CC[C@H](C)c1cc2c(N[C@H]3CC[C@H](N)CC3)c(C(=O)Nc3ccc(F)cc3)cnc2[nH]1 [Compound 156]
3 | > 10 | > 10 | CCC(C)c1cc2c(N[C@H]3CC[C@H](O)CC3)c(C(=O)NC3CCN(c4ncccn4)CC3)cnc2[nH]1 (stereo partly drawn) [Compound 157]
4 | 1 to 10 | 0.1 to 1 | CCC(C)c1cc2c(N[C@H]3CC[C@H](O)CC3)c(C(=O)NC3CCN(C4=NCCCN4)CC3)cnc2[nH]1 (stereo partly drawn) [Compound 158]
5 | > 10 | > 10 | CCC(C)c1cc2c(N[C@H]3CC[C@H](O)CC3)c(-c3ccc(S(=O)(=O)N4CCOCC4)cn3)cnc2[nH]1 (stereo partly drawn) [Compound 159]

Second part, the molecule before the results:

Row | SMILES | Ki [1] [µM] | Ki [2] [µM]
6 | CCC[C@@H](C)c1cc2c(N[C@H]3CC[C@H](N)CC3)c(C(=O)Nc3ccc(F)cc3)cnc2[nH]1 [Compound 150] | 1 to 10 | 1 to 10
7 | CCOC(C)c1cc2c(N[C@H]3CC[C@H](N)CC3)c(C(=O)Nc3ccc(F)cc3)cnc2[nH]1 (stereo partly drawn) [Compound 152] | > 10 | > 10
8 | CCCC(OC)c1cc2c(N[C@H]3CC[C@H](N)CC3)c(C(=O)Nc3ccc(F)cc3)cnc2[nH]1 (stereo partly drawn) [Compound 153] | > 10 | > 10
9 | CCCC(O)c1cc2c(N[C@H]3CC[C@H](N)CC3)c(C(=O)Nc3ccc(F)cc3)cnc2[nH]1 (stereo partly drawn) [Compound 154] | > 10 | > 10

From US20200071326A1, “TAM KINASE INHIBITORS” (Syros Pharmaceuticals, Inc., priority 2017, published 2020)
